PubChem BioAssay (NCI)
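Abbreviation: GI50, concentration required for 50% inhibition of growth. TGI is the concentration that stops growth completely.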

How the values were obtained:
Assay in all cases: DTP human tumour cell line panel, 384-well format
OVCAR-8 ovarian = tested on: OVCAR-8 ovarian
HS 578T breast = tested on: HS 578T breast
SF-295 CNS = tested on: SF-295 CNS
SR leukemia = tested on: SR leukemia
HOP-92 NSCLC = tested on: HOP-92 NSCLC
DU-145 prostate = tested on: DU-145 prostate
UO-31 renal = tested on: UO-31 renal
HOP-62 NSCLC = tested on: HOP-62 NSCLC
NCI-H226 lung = tested on: NCI-H226 lung
BT-549 breast = tested on: BT-549 breast
SNB-75 CNS = tested on: SNB-75 CNS
K-562 leukemia = tested on: K-562 leukemia
SK-MEL-5 melanoma = tested on: SK-MEL-5 melanoma
HL-60(TB) leukemia = tested on: HL-60(TB) leukemia
HT29 colon = tested on: HT29 colon
M14 melanoma = tested on: M14 melanoma
OVCAR-5 ovarian = tested on: OVCAR-5 ovarian
LOX IMVI melanoma = tested on: LOX IMVI melanoma
MDA-MB-231 breast = tested on: MDA-MB-231 breast
RPMI-8226 leukemia = tested on: RPMI-8226 leukemia
MDA-MB-468 breast = tested on: MDA-MB-468 breast
MALME-3M melanoma = tested on: MALME-3M melanoma
IGROV1 ovarian = tested on: IGROV1 ovarian
UACC-257 melanoma = tested on: UACC-257 melanoma
SNB-19 CNS = tested on: SNB-19 CNS
HCT-15 colon = tested on: HCT-15 colon
OVCAR-3 ovarian = tested on: OVCAR-3 ovarian
U251 glioblastoma = tested on: U251 glioblastoma
OVCAR-4 ovarian = tested on: OVCAR-4 ovarian
HCC-2998 colon = tested on: HCC-2998 colon
NCI-H23 lung = tested on: NCI-H23 lung
SN12C renal = tested on: SN12C renal
UACC-62 melanoma = tested on: UACC-62 melanoma
PC-3 prostate = tested on: PC-3 prostate
SK-OV-3 ovarian = tested on: SK-OV-3 ovarian
T-47D breast = tested on: T-47D breast
KM12 colon = tested on: KM12 colon
HCT-116 colon = tested on: HCT-116 colon
NCI-H522 lung = tested on: NCI-H522 lung
SK-MEL-2 melanoma = tested on: SK-MEL-2 melanoma
A498 renal = tested on: A498 renal
SK-MEL-28 melanoma = tested on: SK-MEL-28 melanoma
RXF 393 renal = tested on: RXF 393 renal
NCI-H460 NSCLC = tested on: NCI-H460 NSCLC
NCI-H322M lung = tested on: NCI-H322M lung
MOLT-4 leukemia = tested on: MOLT-4 leukemia
MDA-MB-435 melanoma = tested on: MDA-MB-435 melanoma
ACHN renal = tested on: ACHN renal
786-0 renal = tested on: 786-0 renal
SF-539 CNS = tested on: SF-539 CNS
CCRF-CEM leukemia = tested on: CCRF-CEM leukemia
A549 NSCLC = tested on: A549 NSCLC
CAKI-1 renal = tested on: CAKI-1 renal
SW-620 colon = tested on: SW-620 colon
TK-10 renal = tested on: TK-10 renal
SF-268 CNS = tested on: SF-268 CNS

SMILES: COc1ccc(-c2c(Nc3ccccn3)nc3c(C4=CCCCC4)c(-c4ccccc4)[nH]n3c2=O)cc1
- GI50 (OVCAR-8 ovarian): 2110 nM
- TGI (OVCAR-8 ovarian): > 100000 nM
- GI50 (HS 578T breast): 1060 nM
- TGI (HS 578T breast): 14500 nM
- GI50 (SF-295 CNS): 1120 nM
- TGI (SF-295 CNS): > 100000 nM
- GI50 (SR leukemia): 222 nM
- TGI (SR leukemia): 1090 nM
- GI50 (HOP-92 NSCLC): 1940 nM
- TGI (HOP-92 NSCLC): 74900 nM
- GI50 (DU-145 prostate): 727 nM
- TGI (DU-145 prostate): 9510 nM
- GI50 (UO-31 renal): 3360 nM
- TGI (UO-31 renal): > 100000 nM
- GI50 (HOP-62 NSCLC): 717 nM
- TGI (HOP-62 NSCLC): 9610 nM
- GI50 (NCI-H226 lung): 2010 nM
- TGI (NCI-H226 lung): > 100000 nM
- GI50 (BT-549 breast): 461 nM
- TGI (BT-549 breast): > 100000 nM
- GI50 (SNB-75 CNS): 8110 nM
- TGI (SNB-75 CNS): > 100000 nM
- GI50 (K-562 leukemia): 928 nM
- TGI (K-562 leukemia): > 100000 nM
- GI50 (SK-MEL-5 melanoma): 835 nM
- TGI (SK-MEL-5 melanoma): 2640 nM
- GI50 (HL-60(TB) leukemia): 580 nM
- TGI (HL-60(TB) leukemia): 1850 nM
- GI50 (HT29 colon): 4210 nM
- TGI (HT29 colon): > 100000 nM
- GI50 (M14 melanoma): 841 nM
- TGI (M14 melanoma): > 100000 nM
- GI50 (OVCAR-5 ovarian): 2320 nM
- TGI (OVCAR-5 ovarian): > 100000 nM
- GI50 (LOX IMVI melanoma): 989 nM
- TGI (LOX IMVI melanoma): 8410 nM
- GI50 (MDA-MB-231 breast): 1240 nM
- TGI (MDA-MB-231 breast): 6850 nM
- GI50 (RPMI-8226 leukemia): 288 nM
- TGI (RPMI-8226 leukemia): 1880 nM
- GI50 (MDA-MB-468 breast): 967 nM
- TGI (MDA-MB-468 breast): 2780 nM
- GI50 (MALME-3M melanoma): 1290 nM
- TGI (MALME-3M melanoma): > 100000 nM
- GI50 (IGROV1 ovarian): 2450 nM
- TGI (IGROV1 ovarian): > 100000 nM
- GI50 (UACC-257 melanoma): 1610 nM
- TGI (UACC-257 melanoma): > 100000 nM
- GI50 (SNB-19 CNS): 2000 nM
- TGI (SNB-19 CNS): > 100000 nM
- GI50 (HCT-15 colon): 1360 nM
- TGI (HCT-15 colon): > 100000 nM
- GI50 (OVCAR-3 ovarian): 1000 nM
- TGI (OVCAR-3 ovarian): 3320 nM
- GI50 (U251 glioblastoma): 1270 nM
- TGI (U251 glioblastoma): > 100000 nM
- GI50 (OVCAR-4 ovarian): 1590 nM
- TGI (OVCAR-4 ovarian): > 100000 nM
- GI50 (HCC-2998 colon): 2410 nM
- TGI (HCC-2998 colon): > 100000 nM
- GI50 (NCI-H23 lung): 1330 nM
- TGI (NCI-H23 lung): > 100000 nM
- GI50 (SN12C renal): 1990 nM
- TGI (SN12C renal): > 100000 nM
- GI50 (UACC-62 melanoma): 890 nM
- TGI (UACC-62 melanoma): > 100000 nM
- GI50 (PC-3 prostate): 1580 nM
- TGI (PC-3 prostate): > 100000 nM
- GI50 (SK-OV-3 ovarian): 604 nM
- TGI (SK-OV-3 ovarian): > 100000 nM
- GI50 (T-47D breast): 1060 nM
- TGI (T-47D breast): > 100000 nM
- GI50 (KM12 colon): 2160 nM
- TGI (KM12 colon): > 100000 nM
- GI50 (HCT-116 colon): 1280 nM
- TGI (HCT-116 colon): 5720 nM
- GI50 (NCI-H522 lung): 1040 nM
- TGI (NCI-H522 lung): 10900 nM
- GI50 (SK-MEL-2 melanoma): 2180 nM
- TGI (SK-MEL-2 melanoma): 9100 nM
- GI50 (A498 renal): 309 nM
- TGI (A498 renal): > 100000 nM
- GI50 (SK-MEL-28 melanoma): 3090 nM
- TGI (SK-MEL-28 melanoma): > 100000 nM
- GI50 (RXF 393 renal): 108 nM
- TGI (RXF 393 renal): 2720 nM
- GI50 (NCI-H460 NSCLC): 353 nM
- TGI (NCI-H460 NSCLC): 2760 nM
- GI50 (NCI-H322M lung): 1060 nM
- TGI (NCI-H322M lung): > 100000 nM
- GI50 (MOLT-4 leukemia): 189 nM
- TGI (MOLT-4 leukemia): 431 nM
- GI50 (MDA-MB-435 melanoma): 3080 nM
- TGI (MDA-MB-435 melanoma): > 100000 nM
- GI50 (ACHN renal): 1790 nM
- TGI (ACHN renal): > 100000 nM
- GI50 ([…]-0 renal): 2410 nM
- TGI (786-0 renal): > 100000 nM
- GI50 (SF-539 CNS): 1460 nM
- TGI (SF-539 CNS): > 100000 nM
- GI50 (CCRF-CEM leukemia): 304 nM
- TGI (CCRF-CEM leukemia): 1100 nM
- GI50 (A549 NSCLC): 1440 nM
- TGI (A549 NSCLC): > 100000 nM
- GI50 (CAKI-1 renal): 1380 nM
- TGI (CAKI-1 renal): > 100000 nM
- GI50 (SW-620 colon): 3000 nM
- TGI (SW-620 colon): > 100000 nM
- GI50 (TK-10 renal): 1640 nM
- TGI (TK-10 renal): > 100000 nM
- GI50 (SF-268 CNS): 589 nM
- TGI (SF-268 CNS): > 100000 nM
